Experimental data reported in patent publication US9193669B2, “Compounds for treating ophthalmic diseases and disorders” (Acucela Inc., priority 2008, dated 2015).

Biological target: T1, isomerase (Mus musculus, UniProt Q91ZQ5)
T1 construct: The recovery of 11-cis-retinal after bleaching can be used to estimate the activity of isomerase in vivo; from tissue; host or cells: eyes of living mice (CD-1; Balb/c also named)
T1 sequence (Q91ZQ5 1-533): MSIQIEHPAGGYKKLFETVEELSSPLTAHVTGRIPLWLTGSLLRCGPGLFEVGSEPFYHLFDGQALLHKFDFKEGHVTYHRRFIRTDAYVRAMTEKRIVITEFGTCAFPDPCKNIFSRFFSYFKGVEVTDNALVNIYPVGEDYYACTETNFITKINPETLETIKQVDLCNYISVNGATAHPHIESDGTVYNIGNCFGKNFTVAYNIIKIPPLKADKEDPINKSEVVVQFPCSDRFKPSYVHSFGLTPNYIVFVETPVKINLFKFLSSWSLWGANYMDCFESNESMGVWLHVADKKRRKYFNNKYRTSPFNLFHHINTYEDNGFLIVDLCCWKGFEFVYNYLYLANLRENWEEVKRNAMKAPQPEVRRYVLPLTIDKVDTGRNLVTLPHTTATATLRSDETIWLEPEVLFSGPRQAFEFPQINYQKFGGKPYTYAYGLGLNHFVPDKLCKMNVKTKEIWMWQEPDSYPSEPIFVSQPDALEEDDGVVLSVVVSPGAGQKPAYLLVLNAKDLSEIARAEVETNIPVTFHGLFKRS
Experiment: In vivo murine isomerase assay
Set-up: species or system mice
Settings: mouse, po, 4 h; read-out: % Inibition 1 mg/kg, 4 h
Description: The capability of compounds described herein to inhibit isomerase was determined by an in vivo murine isomerase assay. Brief exposure of the eye to intense light (“photobleaching” of the visual pigment or simply “bleaching”) is known to photo-isomerize almost all 11-cis-retinal in the retina. The recovery of 11-cis-retinal after bleaching can be used to estimate the activity of isomerase in vivo. Delayed recovery, as represented by lower 11-cis-retinal oxime levels, indicates inhibition of isomerization reaction. Procedures were performed essentially as described by Golczak et al., Proc. Natl. Acad. Sci. […] Mice were gavaged with the compounds described in the present disclosure. After about 2-24 hours in the dark, the mice were exposed to photobleaching of about 5,000 lux of white light for 10 minutes. The mice were allowed to recover for about 2 hours in the dark. The animals were then sacrificed by carbon dioxide inhalation. Retinoids were extracted from the eye and the regeneration of 11-cis-retinal was assessed at various time intervals. […] After the mice were sacrificed, the eyes were immediately removed and placed in liquid nitrogen for storage. The eyes were placed in about 500 μL of bis-tris propane buffer (10 mM, pH˜7.3) and about 20 μl of 0.8M hydroxylamine (pH˜7.3). The eyes were cut up into small pieces with small iris scissors and then thoroughly homogenized at 30000 rpm with a mechanical homogenizer (Polytron PT 1300 D) in the tube until no visible tissue remains. About 500 μL of methanol and about 500 μL of heptane was added to each tube. The tubes were attached to a vortexer so that the contents are mixed thoroughly for about 15 minutes in room temperature. […] The samples were analyzed on an Agilent 1100 HPLC system with normal phase column: SILICA (Beckman Coutlier, dp 5 μm, […]). […] Loading volume for each sample was about 100 μl; detection wavelength is 360 nm. The area under the curve for 11-cis-retinal oxime was calculated by Agilent Chemstation software and recorded manually. Data processing was performed using Prizm software. Positive control mice (no compound administered) were sacrificed fully dark-adapted and the eye retinoids analyzed. Light (bleached) control mice (no compound administered) were sacrificed and retinoids isolated and analyzed immediately after light treatment. A time course study was also performed to determine the isomerase inhibitory activity of compounds of the present disclosure. Female or male mice (such as Balb/c mice) (at least 4/group) received 0 to about 5 mg of compounds (in water) per kg bodyweight orally, by gavage. The animals were then “photo-bleached” (about 5000 Lux white light for about 10 minutes) at about 2, 4, 8, 16 and 24 hours after dosing, and returned to darkness to allow recovery of the 11-cis-retinal content of the eyes. Mice were sacrificed about 2 hours after bleaching, eyes were enucleated, and retinoid content was analyzed by HPLC. A dose response in vivo isomerase inhibition study is performed with compounds of the present disclosure. Male or female mice (such as Balb/c mice)(at least about 8/group) are dosed orally with about 0.01 to 25 mg/kg of the compounds of HCl salts of the compounds in sterile water as solution, and photobleached about 4 hours after dosing. Recovery and retinoid analysis is performed as described above. Dark control mice are vehicle-only treated, sacrificed fully dark adapted without light treatment, and analyzed. […]

inhibition in vivo at 1 mg/kg | Structure (SMILES)
4.54% | NCCC(O)c1cccc(NCCc2ccccc2)c1 (stereo not drawn) [Example 49, 3-Amino-1-(3-(phenethylamino)phenyl)propan-1-ol]
4.08 ± 4.84% | COc1ccccc1CNc1cccc(C(O)CCN)c1 (stereo not drawn) [Example 47, 3-Amino-1-(3-((2-methoxybenzyl)amino)phenyl)propan-1-ol]
1.98 ± 6.02% | CCCCCNc1cccc(C(O)CCN)c1 (stereo not drawn) [Example 13, 3-amino-1-(3-(pentylamino)phenyl)propan-1-ol]
-0.34 ± 6.12% | NCCC(O)c1cccc(NCCCCCOCc2ccccc2)c1 (stereo not drawn) [Example 41, 3-Amino-1-(3-(5-(benzyloxy)pentylamino)phenyl)propan-1-ol]
-1.4 ± 2.78% | CCC(CC)CNc1cccc(C(=O)CCN)c1 [Example 36, 3-Amino-1-(3-(2-ethylbutylamino)phenyl)propan-1-one]
101.6 ± 0.49% | CCCC(CCC)CNc1cccc(C(O)CCN)c1 (stereo not drawn) [Example 37, 3-Amino-1-(3-(2-propylpentylamino)phenyl)propan-1-ol]
4.24 ± 13% | NCCC(O)c1cccc(NCCCc2ccccc2)c1 (stereo not drawn) [Example 59, 3-Amino-1-(3-(3-phenylpropylamino)phenyl)propan-1-ol]
4.32 ± 7.88% | CCC(CC)CNc1cccc(CCCN)c1 [Example 33, 3-(3-aminopropyl)-N-(2-ethylbutyl)aniline]
97.9 ± 1.5% | [2H]/C(=C(/[2H])C(O)(CCC)CCC)c1cccc(C(O)CCN)c1 (stereo not drawn) [Example 117, (E)-4-(2-(3-(3-Amino-1-hydroxypropyl)phenyl)-1,2-dideuterovinyl)heptan-4-ol]
95.5 ± 1.07% | [2H]C1(CNc2cccc(C(O)CCN)c2)CCCCC1 (stereo not drawn) [Example 91, 3-Amino-1-(3-((1-deuterocyclohexyl)methylamino)phenyl)propan-1-ol]
-1.24 ± 4.43% | CCCC(CCC)C(=O)Nc1cccc(C(O)CCN)c1 (stereo not drawn) [Example 73, N-(3-(3-Amino-1-hydroxypropyl)phenyl)-2-propylpentanamide]
69.9 ± 6.85% | NCCC(O)c1cccc(NCC2CCCC2)c1 (stereo not drawn) [Example 39, 3-Amino-1-(3-(cyclopentylmethylamino)phenyl)propan-1-ol]
95.3 ± 2.7% | NCCC(O)c1cccc(NCC2CCCCC2)c1 (stereo not drawn) [Example 11, 3-amino-1-(3-(cyclohexylmethylamino)phenyl)propan-1-ol]
95.2 ± 1.41% | CCC(CC)CNc1cccc(C(O)CCN)c1 (stereo not drawn) [Example 35, 3-amino-1-(3-(2-ethylbutylamino)phenyl)propan-1-ol]
-0.003 ± 19.4% | NCCC(O)c1cccc(NC(=O)C2CCCCC2)c1 (stereo not drawn) [Example 15, N-(3-(3-amino-1-hydroxypropyl)phenyl)cyclohexanecarboxamide]
3.17 ± 4.97% | CN(CC1CCCCC1)c1cccc(C(O)CCN)c1 (stereo not drawn) [Example 90, 3-Amino-1-(3-((cyclohexylmethyl)(methyl)amino)phenyl)propan-1-ol]

The remaining lines, values behind:

Structure (SMILES) | inhibition in vivo at 1 mg/kg
NCCC(=O)c1cccc(NCCCc2ccccc2)c1 [Example 60, 3-Amino-1-(3-(3-phenylpropylamino)phenyl)propan-1-one] | -1.33 ± 5.2%
CCCCCNc1cccc(C(=O)CCN)c1 [Example 14, 3-amino-1-(3-(pentylamino)phenyl)propan-1-one] | 8.12 ± 16.2%
[2H]C(O)(CCN)c1cccc(NCC2CCCCC2)c1 (stereo not drawn) [Example 81, 3-Amino-1-(3-(cyclohexylmethylamino)phenyl)-1-deuteropropan-1-ol] | 85 ± 3.06%
NCCCc1cccc(NS(=O)(=O)c2ccccc2)c1 [Example 99, N-(3-(3-Aminopropyl)phenyl)benzenesulfonamide] | -3.83 ± 5.52%
[2H]C1([2H])C([2H])([2H])C([2H])([2H])C([2H])(C(=O)Nc2cccc(C(O)CCN)c2)C([2H])([2H])C1([2H])[2H] (stereo not drawn) [Example 93, N-(3-(3-Amino-1-hydroxypropyl)phenyl)-1,2,2,3,3,4,4,5,5,6,6-undecadeuterocyclohexanecarboxamide] | -0.53 ± 4.53%
[2H]C([2H])(CN)C(O)c1cccc(NC(=O)C2CCCCC2)c1 (stereo not drawn) [Example 57, N-(3-(3-amino-2,2-dideutero-1-hydroxypropyl)phenyl)cyclohexanecarboxamide] | 2.01 ± 1.3%
COc1ccccc1CNc1cccc(C(=O)CCN)c1 [Example 48, 3-Amino-1-(3-(2-methoxybenzylamino)phenyl)propan-1-one] | 0.21 ± 8.88%
[2H]C([2H])(N)CC(O)c1cccc(C#CC2CCCCC2)c1 (stereo not drawn) [Example 123, 3-amino-1-(3-(cyclohexylethynyl)phenyl)-3,3-dideuteropropan-1-ol] | 91.4 ± 2.5%
NCCC(O)c1cccc(NS(=O)(=O)c2ccccc2)c1 (stereo not drawn) [Example 101, N-(3-(3-Amino-1-hydroxypropyl)phenyl)benzenesulfonamide] | 1.82 ± 10.5%
NCCCc1cccc(NCC2CCCC2)c1 [Example 31, 3-(3-aminopropyl)-N-(cyclopentylmethyl)aniline] | 9.52 ± 4.6%
[2H]C([2H])(CN)C(O)c1cccc(NCC2CCCCC2)c1 (stereo not drawn) [Example 82, 3-Amino-1-(3-(cyclohexylmethylamino)phenyl)-2,2-dideuteropropan-1-ol] | 75.1 ± 8.03%
[2H]C([2H])(CN)C(O)c1cccc(C#CC2CCCCC2)c1 (stereo not drawn) [Example 122, 3-amino-1-(3-(cyclohexylethynyl)phenyl)-2,2-dideuteropropan-1-ol] | 84.9 ± 4.5%
[2H]C([2H])(N)CC(O)c1cccc(NCC2CCCCC2)c1 (stereo not drawn) [Example 83, 3-Amino-1-(3-(cyclohexylmethylamino)phenyl)-3,3-dideuteropropan-1-ol] | 89.5 ± 2.09%
[2H]C([2H])(N)CC(O)c1cccc(C#CC2(O)CCCCC2)c1 (stereo not drawn) [Example 121, 1-((3-(3-amino-3,3-dideutero-1-hydroxypropyl)phenyl)ethynyl)cyclohexanol] | 27.5 ± 9.6%
NCCC(=O)c1cccc(NC(=O)C2CCCCC2)c1 [Example 16, N-(3-(3-aminopropanoyl)phenyl)cyclohexanecarboxamide] | 17.1 ± 5.32%
NCCCc1cccc(NCCCc2ccccc2)c1 [Example 64, 3-(3-Aminopropyl)-N-(3-phenylpropyl)aniline] | 3.83%
NCCC(=O)c1cccc(NCC2CCCCC2)c1 [Example 12, 3-amino-1-(3-(cyclohexylmethylamino)phenyl)propan-1-one] | 9.16 ± 9.41%
NCCC(=O)c1cccc(NS(=O)(=O)c2ccccc2)c1 [Example 103, N-(3-(3-Aminopropanoyl)phenyl)benzenesulfonamide] | -2.77 ± 6.53%
NCCC(=O)c1cccc(NCC2CCCC2)c1 [Example 40, 3-Amino-1-(3-(cyclopentylmethylamino)phenyl)propan-1-one] | 1.24 ± 9.74%
[2H]C([2H])(CN)C(O)c1cccc(NS(=O)(=O)C2CCCCC2)c1 (stereo not drawn) [Example 58, N-(3-(3-amino-2,2-dideutero-1-hydroxypropyl)phenyl)cyclohexanesulfonamide] | 6.94 ± 5.15%
